# Measured values from patent publication US20080050355A1, “PROTECTION OF BIOACTIVE FOOD INGREDIENTS BY MEANS OF ENCAPSULATION” (COMPAGNIE GERVAIS DANONE, priority 2004, published 2008).
# Entries after “also recorded” stand apart in the source; their conditions may differ. Like-named read-outs stand apart in the source and are kept apart here. Peptide text beside a SMILES is read from it.
# Legend:
# pathogenic strains = settings: In vitro, cited from earlier work
# platelet aggregation = settings: In vitro; Jollès 1986; cited from earlier work
# [1] = test system: ferment consisting of a mixture of strains 1-2783, 1-2774, 1-2835 and 1-1968; assay: Fermentation of milk mix containing Lactium up to pH 4.70, residual peptides by HPLC-MS/MS; type: physicochemical; settings: 1.5 g/L Lactium® added before fermentation
# Protocol: (§1) Protocol: the medium was prepared by hydrating a skimmed milk powder at 120 g/L, to which 1.5 g/L of Lactium® ingredient is added (corresponding to approximately 30 mg/L αs1 [91-100] bioactive peptide) then pasteurised at 95° C. for 8 minutes.
# (§2) The lacetic ferment was added at a percentage of 0.02% and fermentation was conducted at the optimal temperature of the chosen ferment (between 37 and 42° C.) up to a pH of 4.70.
# Analysis of the residual peptides, in particular of the bioactive peptide αS1[91-100], was conducted using a HPLC method coupled to a detector of MS/MS type as described below: • the sample was prepared by diluting the fermented medium in a mixture of water, methanol and trifluoroacetic acid (50/50/0.1%) to a ratio of approximately 1 to 6. […] The peptides were eluted in conventional manner against an increasing gradient of solvent B (Acetonitrile+0.100% formic acid) in solvent A (Water+0.106% formic acid) for a time of 40 min to 2 hours in relation to desired resolution. • detection was made using a specific detector of MS/MS type, for example of ion trap type such as the Esquire 3000+(Bruker, Daltonique, rue de l'Industrie 67166 Wissembourg Cedex) adjusted either for global analysis of the peptide content (MS-MS mode) or for precise, specific quantification of a peptide from its characteristic fragments. […]
# [2] = test system: ferment YC380 (Chr. Hansen); assay: Fermentation of milk mix containing hydrolysate up to pH 4.7, residual peptides by HPLC-MS/MS; type: physicochemical
# Protocol: FIG. 3: Compared peptide profiles (LC-MS/MS chromatograms) of a milk “mix” containing 1.5 g/L DMV C12® hydrolysate before (1) and after (2) fermentation up to pH 4.7 by the lacetic ferment Hansen YC380. Almost all the peptides of the hydrolysate, including the bioactive C12 peptide (fragment αS1[23-34] disappeared after metabolisation by the ferment strains.
# as §1, §2
# Analysis of the residual peptides, in particular of the bioactive peptide αS1[91-100], was conducted using a HPLC method coupled to a detector of MS/MS type as described below: • the sample was prepared by diluting the fermented medium in a mixture of water, methanol and trifluoroacetic acid (50/50/0.1%) to a ratio of approximately 1 to 6. […] For example the αS1[91-100] peptide was isolated from its mass (double charged ion of mass 634.5 Da) and quantified from the intensity of its characteristic daughter ions after fragmenting (ions with m/z 991.5 Da, 771.5 Da and 658.3 Da). […]
# [3] = test system: Pure strains (Lactobacillus); assay: Fermentation of reconstituted milk with 1.5 g/L Lactium by pure strains; type: physicochemical; settings: milk mix containing 1.5 g/L Lactium®, fermentation halted at pH 4.7
# Protocol: (§3) Analysis of the residual peptides, in particular of the bioactive peptide αS1[91-100], was conducted using a HPLC method coupled to a detector of MS/MS type as described below: • the sample was prepared by diluting the fermented medium in a mixture of water, methanol and trifluoroacetic acid (50/50/0.1%) to a ratio of approximately 1 to 6. The supernatant after centrifuging formed the sample representing the peptide content of the fermented medium. • this sample was injected into a HPLC chromatography system of Agilent 1100 type (Agilent Technologies France, 1 rue Galvani 91745 Massy Cedex France) equipped with a column adapted for peptide analysis of Waters Symetry® type (5 μm 2.1×150 mm, WAT056975, Waters, France, 5 Rue Jacques Monod, 78280 Guyancourt) at a temperature of 40° C. and flow rate 0.25 ml/min. The peptides were eluted in conventional manner against an increasing gradient of solvent B (Acetonitrile+0.100% formic acid) in solvent A (Water+0.106% formic acid) for a time of 40 min to 2 hours in relation to desired resolution. • detection was made using a specific detector of MS/MS type, for example of ion trap type such as the Esquire 3000+(Bruker, Daltonique, rue de l'Industrie 67166 Wissembourg Cedex) adjusted either for global analysis of the peptide content (MS-MS mode) or for precise, specific quantification of a peptide from its characteristic fragments. For example the αS1[91-100] peptide was isolated from its mass (double charged ion of mass 634.5 Da) and quantified from the intensity of its characteristic daughter ions after fragmenting (ions with m/z 991.5 Da, 771.5 Da and 658.3 Da). In even more precise manner, an internal standard consisting of the same synthetic peptide deuterated twice (characteristic fragment of 993.5 Da) allowed any matrix-related interferences to be overcome and taken into account.
# (§4) To verify that this phenomenon is not particular to the two ferments used in paragraph 1.1) above, the main industrial ferments and different pure strains entering into the composition of these ferments, were tested on the same test basis: milk reconstituted from milk powder, to which Lactium® was added at a dose of 1.5 g/L, was fermented under standard conditions (optimal ferment temperature between 37 and 42° C., halting of fermentation at pH 4.7, two repeats). Analysis of the level of αS1[91-100] bioactive peptide was conducted on the sample before and after fermentation.
# (§5) In Table 3 above, which reflects consumption of the bioactive peptide aS1[91-100] by different ferments and industrial strains during fermentation of a milk mix containing 1.5 g/L Lactium®, the pure strains were identified by their numbers and respective date of depositing with the CNCM (Institut Pasteur, Paris France).
# [4] = test system: Pure strains (S. thermophilus); assay: as above; type: physicochemical; settings: milk mix containing 1.5 g/L Lactium®, fermentation halted at pH 4.7
# Protocol: as §3, §4, §5
# [5] = Storage of fermented then thermised product with peptide added after fermentation; type: physicochemical; settings: thermised at 75° C. for 1 minute, stored at 10° C. until BBD (FIG. 5)
# Protocol: FIG. 5: Curves illustrating changes in the residual content of αS1[91-100] bioactive peptide added after fermentation, in a product fermented and then thermised at 75° C. for 1 minute and stored at 10° C. until the Best Before Date (BBD).
# This solution effectively has numerous drawbacks: • thermisation of a fermented milk mass implies the use of stabilisers added before the heat treatment (pectins, starches, carrageenans, etc.) which complicates the method and substantially increases the cost of the formula; • the industrial production line is more complex and requires specific, higher investment; • the product no longer benefits from quality labels related to products containing living ferments (yoghurt type), and thereby loses the benefits associated with the consumption of lacetic ferments; • the organoleptic impact (generally negative) is significant.
# fermented mass = assay: Storage of fermented mass with Lactium encapsulated in palm oil emulsion; type: physicochemical
# Protocol: FIG. 6: Illustration of the change in content of encapsulated bioactive ingredient over time (storage at 4° C.).
# FIG. 7: Compared peptide profiles (LC-MS/MS chromatograms) of a milk mix containing 1.5 g/L Lactium® added in the form of an emulsion in palm oil according to the present invention, immediately after addition to the fermented mass (1) and after 14 days' storage at 10° C. (2).
# The oil was melted at 50° C. to obtain total absence of crystals, and the Lactium® containing the bioactive food ingredient αS1(91-100] was gradually added under magnetic stirring (maintained at 50° C.).
# A type of syrup was prepared from water and the premix of palm oil/bioactive food ingredient. The bioactive food ingredient was gradually added to the water (30° C.) under Ultraturax stirring (22000 rpm), the palm content of the solution being arbitrarily fixed at […].
# The emulsion obtained was easily pumpable at 30° C.-35° C., but became progressively firmer as soon as the temperature fell to below 25° C.-30° C. (progressive recrystallisation of the palm oil). The use of a food emulsifier (e.g. Lactem® supplied by Danisco) to the proportion of 0.5%/fat led to obtaining a population of fatty globules that was less heterogeneous.
# [6] = Hypertensive rats, after ingestion; Nakamura 1995; cited from earlier work
# [7] = Normal rats; Nakamura 1995; cited from earlier work
# [8] = Human hypertension (36 patients), after 8 weeks' ingestion of 95 mL/d; Hata 1996; cited from earlier work
# [9] = In vivo animal; Migliore-Samour 1988; cited from earlier work
# [10] = Dog, 10 g/300 mL water by stomach tube; cancelled by naloxone; Defilippi 1986; cited from earlier work
compound,measurement,setting,value
Lactoferricin,growth of pathogenic strains,pathogenic strains; Tomita 1994-Zucht 1995,Inhibited growth of pathogenic strains
"Peptide 106-116 of bovine κ-casein: fragment 106-116 of bovine κ-casein (MAIPPKKNQDK; UniProt P02668 127-137, looked up, fragment)",platelet aggregation,platelet aggregation,Inhibits
"αS1[91-100]: bioactive peptide with relaxing properties contained in the hydrolysate of milk proteins marketed by Ingredia as Lactium® (YLGYLEQLLR; UniProt P02662 106-115, looked up, fragment)",bioactive peptide consumed after fermentation,[1],more than 95%
same,bioactive peptide consumed after fermentation,"[2]; 1.5 g/L Lactium® added before fermentation, up to pH 4.70",more than 95%
same,% αS1[91-100] peptide remaining after fermentation,[3]; strain 1-1519 (30 Dec. 1994),0.1%
same,% αS1[91-100] peptide remaining after fermentation,[3]; strain 1-1632 (24 Oct. 1995),0.2%
same,% αS1[91-100] peptide remaining after fermentation,[3]; strain 1-1968 (14 Jan. 1998),1.6%
same,% αS1[91-100] peptide remaining after fermentation,[3]; strain 1-2809 (19 Feb. 2002),0.4%
same,% αS1[91-100] peptide remaining after fermentation,[4]; strain 1-1477 (22 Sep. 1994),0.3%
same,% αS1[91-100] peptide remaining after fermentation,[4]; strain 1-1630 (24 Oct. 1995),0.3%
same,stability of the peptide in heat-treated fermented product,[5],possible to ensure the stability; also recorded: possible to preserve
same,content of encapsulated bioactive ingredient over time,"fermented mass; encapsulated in palm oil emulsion, added to fermented white mass, storage at 4° C. (FIG. 6)",stability
Il-Pro-Pro [Il-Pro-Pro (IPP)],blood pressure,[6],"ingestion, reduced blood"
same,blood pressure,[7],Normal rats: no effect
same,blood pressure,[8],reduced blood pressure
"Casein 63-68: fragment 63-68 of bovine β-casein (PGPIPN; UniProt P02666 78-83, looked up, fragment)",in vivo protection,[9],No in vivo protection
CC[C@H](C)[C@H](NC(=O)[C@@H]1CCCN1C(=O)[C@H](Cc1cnc[nH]1)NC(=O)[C@H](CCCCN)NC(=O)[C@@H]1CCCN1C(=O)[C@@H](N)CCCNC(=N)N)C(=O)N[C@@H](CCCCN)C(=O)N[C@@H](Cc1cnc[nH]1)C(=O)N[C@@H](CCC(N)=O)C(=O)NCC(=O)N[C@@H](CC(C)C)C(=O)N1CCC[C@H]1C(=O)N[C@@H](CCC(N)=O)C(=O)N[C@@H](CCC(=O)O)C(=O)N[C@H](C(=O)N[C@@H](CC(C)C)C(=O)N[C@@H](CC(N)=O)C(=O)N[C@@H](CCC(=O)O)C(=O)N[C@@H](CC(N)=O)C(=O)N[C@@H](CC(C)C)C(=O)N[C@@H](CC(C)C)C(=O)N[C@@H](CCCNC(=N)N)C(=O)N[C@@H](Cc1ccccc1)C(=O)O)C(C)C [isracidin] (H-RPKHPIKHQGLPQEVLNENLLRF-OH),growth of pathogenic strains,pathogenic strains; Lahov 1996,Inhibited growth of pathogenic
"αS1[23-34]: bioactive C12 peptide, present in the C12 ingredient by DMV International and in Lactium® (FFVAPFPEVFGK; UniProt P02662 38-49, looked up, fragment)",peptides after fermentation (LC-MS/MS peptide profile),"[2]; milk mix containing 1.5 g/L DMV C12® hydrolysate, fermentation up to pH 4.7 (FIG. 3)",disappeared
same,protection of peptide (LC-MS/MS peptide profile),"fermented mass; 1.5 g/L Lactium® as emulsion in palm oil, after 14 days' storage at 10° C. (FIG. 7)",well protected
Casein,small intestine motility,[10],inhibition of small intestine
"Casein 191-193: fragment 191-193 of bovine β-casein (LLY; UniProt P02666 206-208, looked up, fragment)",in vivo protection,[9],No in vivo protection
Val-Pro-Pro [Val-Pro-Pro (VPP)],blood pressure,[6],"ingestion, reduced blood"
same,blood pressure,[7],Normal rats: no effect
same,blood pressure,[8],reduced blood pressure
